Data on six molecules can be found in ChEMBL document CHEMBL1136534, “Dihydroquinolines with amine-containing side chains as potent n-NOS inhibitors” (Bioorg Med Chem Lett, 2003).

The target in one assay is Nitric oxide synthase 1 (Homo sapiens, UniProt P29475). Description: Inhibitory concentration against recombinant human (neuronal nitric oxide synthase) n-NOS.
A further assay has as its target T1, Nitric oxide synthase 3 (Homo sapiens, UniProt P29474).
T1 sequence (P29474 whole entry): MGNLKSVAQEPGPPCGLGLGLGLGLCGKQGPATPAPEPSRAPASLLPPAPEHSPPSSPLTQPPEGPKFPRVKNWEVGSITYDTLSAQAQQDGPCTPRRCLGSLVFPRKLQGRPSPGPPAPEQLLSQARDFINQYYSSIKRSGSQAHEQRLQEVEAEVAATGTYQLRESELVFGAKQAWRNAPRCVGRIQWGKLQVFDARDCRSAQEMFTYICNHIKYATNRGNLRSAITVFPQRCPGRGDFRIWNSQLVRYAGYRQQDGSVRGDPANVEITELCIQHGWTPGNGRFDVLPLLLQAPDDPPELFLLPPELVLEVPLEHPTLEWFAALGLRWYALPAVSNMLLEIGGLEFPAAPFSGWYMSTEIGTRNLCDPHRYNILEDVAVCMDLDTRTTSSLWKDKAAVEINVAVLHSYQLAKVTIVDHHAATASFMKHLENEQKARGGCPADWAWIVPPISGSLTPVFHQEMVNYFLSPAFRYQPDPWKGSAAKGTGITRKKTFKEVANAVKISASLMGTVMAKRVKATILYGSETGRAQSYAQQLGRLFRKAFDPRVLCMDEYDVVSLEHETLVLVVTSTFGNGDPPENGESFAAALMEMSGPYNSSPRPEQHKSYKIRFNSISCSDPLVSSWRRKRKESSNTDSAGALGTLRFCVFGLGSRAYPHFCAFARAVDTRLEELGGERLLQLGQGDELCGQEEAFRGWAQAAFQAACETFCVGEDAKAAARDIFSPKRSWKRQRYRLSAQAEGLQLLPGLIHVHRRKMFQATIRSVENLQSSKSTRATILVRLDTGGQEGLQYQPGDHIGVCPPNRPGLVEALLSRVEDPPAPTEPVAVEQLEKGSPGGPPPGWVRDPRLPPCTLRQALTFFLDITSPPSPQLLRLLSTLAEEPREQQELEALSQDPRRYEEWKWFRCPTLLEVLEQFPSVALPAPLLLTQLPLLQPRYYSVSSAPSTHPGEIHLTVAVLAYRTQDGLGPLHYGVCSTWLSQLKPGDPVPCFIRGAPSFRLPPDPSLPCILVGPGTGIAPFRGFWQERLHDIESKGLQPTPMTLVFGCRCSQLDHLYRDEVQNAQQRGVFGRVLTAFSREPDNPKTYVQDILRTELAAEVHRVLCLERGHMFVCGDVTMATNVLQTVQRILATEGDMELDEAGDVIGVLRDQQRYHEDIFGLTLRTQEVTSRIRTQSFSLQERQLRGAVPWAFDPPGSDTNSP
Description: Inhibitory concentration against recombinant human Endothelial nitric oxide synthase.

The target of assay [1] is Nitric oxide synthase, inducible (Homo sapiens, UniProt P35228). Briefly: Inhibitory concentration against human Inducible nitric oxide synthase.
Chain of Nitric oxide synthase, inducible (P35228 whole entry): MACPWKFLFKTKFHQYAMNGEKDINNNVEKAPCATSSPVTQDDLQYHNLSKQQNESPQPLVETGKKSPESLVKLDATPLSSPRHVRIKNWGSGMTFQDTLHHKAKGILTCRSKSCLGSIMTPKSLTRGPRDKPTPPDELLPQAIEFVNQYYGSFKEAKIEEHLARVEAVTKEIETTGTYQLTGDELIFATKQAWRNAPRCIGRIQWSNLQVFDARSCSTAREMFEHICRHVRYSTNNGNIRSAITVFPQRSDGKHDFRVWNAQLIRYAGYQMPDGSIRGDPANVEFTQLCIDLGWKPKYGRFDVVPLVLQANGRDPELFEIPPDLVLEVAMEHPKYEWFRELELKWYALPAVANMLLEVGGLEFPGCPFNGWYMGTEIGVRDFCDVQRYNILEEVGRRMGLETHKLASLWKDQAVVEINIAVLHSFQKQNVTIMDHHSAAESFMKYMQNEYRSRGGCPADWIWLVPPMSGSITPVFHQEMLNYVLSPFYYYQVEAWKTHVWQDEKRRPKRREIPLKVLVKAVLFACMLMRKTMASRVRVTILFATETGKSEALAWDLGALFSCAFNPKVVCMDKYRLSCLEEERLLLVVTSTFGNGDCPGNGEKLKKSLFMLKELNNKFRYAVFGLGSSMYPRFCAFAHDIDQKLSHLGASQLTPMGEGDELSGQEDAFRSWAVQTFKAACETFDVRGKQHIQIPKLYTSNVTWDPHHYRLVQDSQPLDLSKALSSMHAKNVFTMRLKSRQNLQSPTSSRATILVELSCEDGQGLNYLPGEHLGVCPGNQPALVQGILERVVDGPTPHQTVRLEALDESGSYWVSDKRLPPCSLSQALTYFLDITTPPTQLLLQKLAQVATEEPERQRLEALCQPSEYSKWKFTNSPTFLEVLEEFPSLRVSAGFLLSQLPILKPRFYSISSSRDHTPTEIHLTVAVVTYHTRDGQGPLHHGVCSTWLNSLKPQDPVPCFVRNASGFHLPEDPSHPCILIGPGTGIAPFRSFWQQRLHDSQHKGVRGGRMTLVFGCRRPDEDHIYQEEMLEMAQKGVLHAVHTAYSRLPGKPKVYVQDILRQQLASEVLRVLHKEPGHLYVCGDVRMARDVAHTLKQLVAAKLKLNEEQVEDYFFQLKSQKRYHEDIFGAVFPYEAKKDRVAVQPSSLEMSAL

Chain of Nitric oxide synthase 1 (P29475 whole entry): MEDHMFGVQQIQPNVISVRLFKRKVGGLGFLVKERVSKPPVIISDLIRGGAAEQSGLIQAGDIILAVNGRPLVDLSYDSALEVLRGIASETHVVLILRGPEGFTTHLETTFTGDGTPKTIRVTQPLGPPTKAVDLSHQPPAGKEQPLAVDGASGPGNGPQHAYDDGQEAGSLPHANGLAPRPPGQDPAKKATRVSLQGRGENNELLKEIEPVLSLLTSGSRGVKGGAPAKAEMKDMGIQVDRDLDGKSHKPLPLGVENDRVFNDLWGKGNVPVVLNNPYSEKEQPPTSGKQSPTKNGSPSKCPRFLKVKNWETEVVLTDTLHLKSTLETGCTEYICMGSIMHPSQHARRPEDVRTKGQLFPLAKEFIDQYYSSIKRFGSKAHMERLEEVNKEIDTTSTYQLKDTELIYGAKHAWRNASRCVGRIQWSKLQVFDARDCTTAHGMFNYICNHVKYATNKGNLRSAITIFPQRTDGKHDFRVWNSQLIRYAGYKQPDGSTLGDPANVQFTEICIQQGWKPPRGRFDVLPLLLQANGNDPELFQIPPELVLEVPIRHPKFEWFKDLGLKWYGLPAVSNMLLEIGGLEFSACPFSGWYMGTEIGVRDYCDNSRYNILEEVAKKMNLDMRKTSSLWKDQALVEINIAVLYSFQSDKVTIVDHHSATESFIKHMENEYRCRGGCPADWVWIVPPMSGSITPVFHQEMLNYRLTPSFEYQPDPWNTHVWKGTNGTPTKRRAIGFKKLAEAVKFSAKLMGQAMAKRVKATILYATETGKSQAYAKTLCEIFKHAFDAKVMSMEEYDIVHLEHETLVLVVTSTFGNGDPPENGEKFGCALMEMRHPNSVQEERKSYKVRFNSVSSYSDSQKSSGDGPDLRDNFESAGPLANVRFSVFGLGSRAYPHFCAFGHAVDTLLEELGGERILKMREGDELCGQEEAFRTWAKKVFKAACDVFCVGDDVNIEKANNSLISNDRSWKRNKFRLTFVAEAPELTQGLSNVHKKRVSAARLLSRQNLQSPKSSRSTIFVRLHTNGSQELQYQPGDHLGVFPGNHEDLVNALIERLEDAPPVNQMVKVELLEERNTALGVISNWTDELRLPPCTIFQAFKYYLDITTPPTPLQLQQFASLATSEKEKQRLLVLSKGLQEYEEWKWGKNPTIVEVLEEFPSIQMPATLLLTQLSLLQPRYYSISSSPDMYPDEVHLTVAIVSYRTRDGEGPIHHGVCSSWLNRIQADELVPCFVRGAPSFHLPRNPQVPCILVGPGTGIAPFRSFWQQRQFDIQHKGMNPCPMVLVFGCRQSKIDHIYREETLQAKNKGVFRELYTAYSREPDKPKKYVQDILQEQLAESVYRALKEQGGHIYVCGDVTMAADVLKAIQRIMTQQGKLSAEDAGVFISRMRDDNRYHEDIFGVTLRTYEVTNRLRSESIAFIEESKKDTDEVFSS

Consider `N=C(Nc1ccc(CCNCc2cccc(Cl)c2)cc1)c1cccs1`, for which the IC50 (in general, the concentration needed to halve the response being measured) is 35 nM on Nitric oxide synthase 1 and 3500 nM on Nitric oxide synthase 3.

Consider `CNCCOc1ccc2c(c1)N=C(N)[C@@H]1CCC[C@H]21`, for which the IC50 was found to be 3900 nM in assay [1], 170 nM on Nitric oxide synthase 1 and 52000 nM on Nitric oxide synthase 3.

In the case of `NC1=Nc2cc(CCNCc3cccc(Cl)c3)ccc2[C@H]2CCC[C@@H]12`, the figures for the IC50 (in assay [1]; at Nitric oxide synthase 1; at Nitric oxide synthase 3) were 530 nM, 48 nM and 6700 nM, respectively.

With `NC1=Nc2cc(CNCc3cccc(Cl)c3)ccc2[C@H]2CCC[C@@H]12`, the IC50 in assay [1] stood at 950 nM; at Nitric oxide synthase 1, 140 nM; at Nitric oxide synthase 3, 9600 nM.

With `NC1=Nc2cc(CCCNCc3cccc(Cl)c3)ccc2[C@H]2CCC[C@@H]12`, the IC50 in assay [1] turned out to be 580 nM; at Nitric oxide synthase 1, 42 nM; at Nitric oxide synthase 3, 9400 nM.

`NC1=Nc2cc(CCNCc3cccc(Cl)c3)c(Cl)cc2[C@H]2CCC[C@@H]12`: the IC50 in assay [1] was found to be 1600 nM; at Nitric oxide synthase 1 it was 170 nM; at Nitric oxide synthase 3, 8700 nM.
